In US20260234188A1, “CHEMOKINE-BINDING PEPTIDES” (Oxford University Innovation Limited, priority 2022, published 2026):
“Also recorded” adds a separate entry of the source.

System: panel of up to 42 human chemokines
Test: Phage-display next generation sequencing screen of overlapping hexadecapeptide libraries, chemokines displayed on streptavidin beads;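 further: chemokine listed when log2 fold enrichment exceeds 5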
Format: binding
How it was run: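 Phage-display libraries of 55662 overlapping hexadecapeptides from tick and viral chemokine-binding proteins, human chemokines and chemokine receptors screened against up to 42 human chemokines, with hits found by next-generation sequencing. Peptides mapped to parent-protein position with log2 fold enrichment; regions of interest where cumulative residue log2 E exceeds the 95% upper CI of the protein median.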

[1] = log2E greater than 5, chemokines named by first part of UniProt Entry Name, peptides binding complement C5a (control) excluded
[2] = log2E greater than 5, chemokines named by first part of UniProt entry name, C5a (control) binders excluded
[3] = log2E greater than 5, chemokines named by first part of UniProt Entry Name

Substance | Chemokines Bound [1] | Chemokines Bound [2] | Chemokines Bound [3]
CR6604 (FYVAMFASLCFITEIA) | CXL10, CXL11, and SDF1, CXL13, and IL8 | – | –
CR22272 (SWKVLLTLVWGAAPVI) | – | CCL17, CCL18,; also recorded: CCL20, CCL22,; also recorded: CCL25, CCL28,; also recorded: X3CL1, CXL10,; also recorded: CXL11, SDF1,; also recorded: CXL14, IL8 | –
TDGTACYVVERKVWDR [HD3838] | CCL19, CCL2,; also recorded: CCL20, CCL28 | – | –
CR5669 (FLSIFYSVIFAIGLVG) | CCL17, CCL18,; also recorded: CCL19, CCL20,; also recorded: CCL28, X3CL1,; also recorded: CXL10, CXL14 | – | –
CR3146 (DFLSKLLNMIFSISLY) | – | – | CCL17, CCL18,; also recorded: CCL19, CCL2,; also recorded: CCL20, CXL14
CR4712 (FAIVVAYFLSWGPYNF) | – | – | CCL18, CCL19,; also recorded: CCL20, CCL22,; also recorded: CCL25, SDF1
CR2051 (ATYMLLVLYYAMLPLM) | – | CCL20, CCL22,; also recorded: CCL28, X3CL1,; also recorded: CXL10, SDF1,; also recorded: CXL14, IL8 | –
EB1728 (HEDGKKVGLCLSTEYT) | CXL10, SDF1,; also recorded: CXL14 | – | –
CR15967 (MVWANLLVFVVSFLPL) | – | CCL1, CXL10, and SDF1 | –
CR25407 (VLYFIADEVYTVLLSW) | – | – | CCL15, CCL17, and CCL18, CCL19, and CCL20, CCL25, and X3CL1, CXL10, and CXL11, CXL13, and IL8
VP3426 (GSMMLSLLIAGMSLML) | CCL2, CCL5, and X3CL1, CXL10, and IL8 | – | –
CR3716 (DVYLLNLAISDLLFVF) | – | – | CCL11, CCL2,; also recorded: CCL8, CXL11
CR7666 (GSVSLVNLLTIIGCLW) | CCL17, CCL20,; also recorded: CCL25 | – | –
CR21284 (SMVIWVLAFFLSSPSL) | – | CCL1, CCL18,; also recorded: CCL20 | –
CR8812 (IFFIILLTIDRYLAIV) | CCL18, CCL19,; also recorded: CCL22, CXL14 | – | –
CR9141 (IIIWALAILASMPGLY) | CCL20, CCL28,; also recorded: CXL11, SDF1 | – | –
CR7367 (GMPPADEDYSPCMLET) | CCL11, CCL18,; also recorded: CCL19, CCL20 | – | –
CR23587 (TRLGVWLMAIVGTFLN) | – | – | CCL18, CCL20,; also recorded: CCL22
CR22218 (SVSLVNLLTIIGCLWV) | – | CCL19, X3CL1,; also recorded: CXL13 | –
CR6520 (FWWIFAVIIAIPHFMV) | CXL10, CXL11 | – | –
CR15502 (MIFTWNLVLSQFFSIL) | – | CCL11, CCL17,; also recorded: CCL18, CCL19,; also recorded: CCL20, CCL22,; also recorded: CCL25, CCL28,; also recorded: CCL8, X3CL1,; also recorded: CXL10, CXL11,; also recorded: SDF1, CXL13,; also recorded: CXL14, IL8 | –
EB2359 (NDKKVGLCLSTEYTDF) | CXL10, CXL11,; also recorded: SDF1, CXL14 | – | –
CR24556 (VFGTVFLSIFYSVIFA) | – | – | CCL1, CCL17,; also recorded: CCL18, CCL19,; also recorded: CCL2, CCL20,; also recorded: CCL22, CCL25,; also recorded: CCL28, X3CL1,; also recorded: CXL10, CXL11,; also recorded: SDF1, CXL13,; also recorded: CXL14, IL8
CR23958 (TVLLSWKVLLTMVWGA) | – | – | CCL1, CCL18,; also recorded: CCL20, CCL25,; also recorded: CCL28, CXL10,; also recorded: CXL11, SDF1
EB3094 (SGNCTCYHEDGKKVGL) | CXL10, CXL11, and SDF1 | – | –
CR8546 (IAAFSWFMLSLPLLFL) | CCL22, CCL28,; also recorded: CXL14 | – | –

Substance | Chemokines Bound [1] | Chemokines Bound [2] | Chemokines Bound [3]
CR14086 (LQTVITFALYVGQFLA) | – | CCL15, CCL2,; also recorded: CCL28, X3CL1 | –
CR5519 (FLGLMCSVWTHLGMAL) | CCL28, X3CL1,; also recorded: CXL10, CXL11,; also recorded: SDF1, CXL13,; also recorded: CXL14, IL8 | – | CCL1, CCL18,; also recorded: CCL2, CCL22,
CR24900 (VIGFLVPLLAMSFCYL) | – | – | CCL15, CCL17,; also recorded: CCL18
CR22748 (TFKILISIVWGVMPVV) | – | CCL17, CCL18,; also recorded: CCL19, CCL20,; also recorded: CCL22, CCL28,; also recorded: X3CL1, CXL10,; also recorded: CXL11, SDF1,; also recorded: CXL14, IL8 | –
CR26762 (WVASILSSILDTIFHK) | – | – | CCL17, CCL18,; also recorded: X3CL1, CXL10,; also recorded: CXL11, IL8
CK3274 (LRCVCLQTTQGVHPKM) | – | X3CL1, CXL10,; also recorded: CXL11 | –
CR28001 (YVSFISTTILFLIFSV) | – | – | CCL1, CCL15,; also recorded: CCL17, CCL19,; also recorded: CCL20, CCL22,; also recorded: CCL25, CCL28,; also recorded: X3CL1, CXL10,; also recorded: CXL11, CXL14
CR27433 (YLLDFILALVGNTLAL) | – | – | CCL18, CCL19,; also recorded: CCL20, CCL25,; also recorded: CCL28, CXL10,; also recorded: CXL11
EB2053 (KSDVYELFTVEYCGTN) | CXL10, CXL11,; also recorded: CXL13 | – | –
CR8427 (HTLRMTIFCLVLPLLV) | CCL28, CXL10, and CXL11, SDF1, and IL8 | – | –
CR5170 (FGVITSIVTWGLAVLA) | – | – | X3CL1, CXL10, and IL8
VP5438 (LIKAAILLLAGGLAES) | CCL17, CCL20,; also recorded: CCL25, CCL28,; also recorded: CCL5, CXL10 | – | –
CR12872 (LIYLFLLLWEDTQGWG) | – | CCL1, CCL18, and CCL19, CCL2, and CCL20, CCL25, and CXL10, SDF1, and IL8 | –
CR12037 (LENMLFASFYLLDFIL) | – | CCL22, CXL10,; also recorded: CXL11, SDF1,; also recorded: CXL13, IL8 | –
CR26308 (VWLMCIVGTFLNVLVI) | – | – | CCL18, CCL20, and CCL22, CCL28, and CXL10, CXL11, and SDF1
CR8677 (IAYSLISVFGLLGNIL) | CCL2, CXL10,; also recorded: CXL13 | – | –
CR26799 (WVFIFSSIQLATVVFL) | – | – | CCL18, CCL19, and CCL20, CCL22, and CCL28, X3CL1, and CXL10, CXL11, and IL8
CR11719 (LATFKILIAIVWGVMP) | – | CCL1, CCL18,; also recorded: CCL20, CCL22,; also recorded: CCL25, CCL28,; also recorded: CXL10, SDF1 | –
VP11669 (YSLVFVILMCIPFSFQ) | X3CL1, CXL10,; also recorded: CXL11, IL8 | – | –
CR25802 (VSILVWLLAFSVSLPD) | – | – | CCL15, CCL18, and CCL19, CCL20, and CCL28, CXL10, and IL8
CR27677 (YSAFLSGMTSLLLVLL) | – | – | CCL17, CCL18,; also recorded: CCL20, CCL25,; also recorded: CXL10, CXL14
CR6068 (FSFFYVIFSKALHDVT) | CCL1, CCL18, and CCL22, CCL28, and SDF1 | – | –
CR7860 (GWVLGDFLCKLLNMIF) | CCL1, CCL17, and CCL18, CCL19, and CCL2, CCL20, and CCL22, CCL28, and CCL8, CXL10, and SDF1, CXL13, and IL8 | – | –
CR15915 (MVFSFFYVIFAKALHD) | – | CCL1, CCL18,; also recorded: CCL19, CCL20 | –
CR14316 (LSISLLAEVLMFLFPN) | – | CCL17, CCL18,; also recorded: CCL19, CCL2,; also recorded: CCL20, CCL22,; also recorded: CCL25, X3CL1,; also recorded: CXL14 | –
CR25244 (VLLSWKVLLTMVWGAA) | – | – | CCL11, CCL17,; also recorded: CCL18, CCL19,; also recorded: CCL2, CCL20,; also recorded: CCL22, CCL25,; also recorded: CCL28, X3CL1,; also recorded: CXL10, CXL11,; also recorded: SDF1, CXL13,; also recorded: CXL14, IL8

Substance | Chemokines Bound [1] | Chemokines Bound [2] | Chemokines Bound [3]
CR19192 (RLGVWLMSIVGTFLNV) | – | CCL1, CCL17,; also recorded: CCL2, CCL25,; also recorded: X3CL1, CXL11 | –
CR5349 (FIYVLMFLCNAIGNSL) | – | – | CCL19, CCL20,; also recorded: CXL10
CR6269 (FTGMPPADEDYSPCML) | CCL11, CCL17,; also recorded: CCL18, CCL19,; also recorded: CCL20 | – | –
CR8251 (HNKTLSFISLLILSFL) | CCL2, X3CL1, and IL8 | – | –
CR14974 (LVTLPFWGISVAWHWV) | – | CCL18, CCL25,; also recorded: CCL28 | –
CR24063 (TWNLVLSQFFSILATM) | – | – | CCL1, CCL22,; also recorded: CXL11, CXL14
CR8813 (IFFIILLTIDRYLAVV) | CCL17, CCL18,; also recorded: CCL20, CCL25,; also recorded: CCL28, CXL10,; also recorded: CXL11, CXL13,; also recorded: CXL14, IL8 | – | –
CR26513 (WGAAPVIMMTWFYAFF) | – | – | CCL11, CCL17, and CCL18, CCL19, and CCL20, CCL22, and CCL25, CCL28, and X3CL1, CXL10, and CXL11, CXL13, and IL8
CR13634 (LMLVFSFVSMLASLAH) | – | CCL19, CCL28,; also recorded: CXL13, CXL14 | –
CR21134 (SLSISLLAEVLMFLFP) | – | CCL17, CCL18, and CCL2, CCL25, and CCL28, X3CL1, and CXL10, CXL11, and SDF1, CXL14, and IL8 | –
CR9291 (ILALVGNTLALWLFIR) | CCL2, CCL22,; also recorded: CCL25, IL8 | – | –
CR1802 (ASMILESLFAALVTLI) | – | CCL17, CCL18,; also recorded: CCL2, CCL20,; also recorded: CCL22, CCL25,; also recorded: CCL28, CXL10 | –
CR4845 (FDFMILNLSFCDLFIC) | – | – | X3CL1, CXL13, and IL8
CR26630 (WLMCIVGTFLNVLVIT) | – | – | CCL1, CCL17,; also recorded: CCL18, CCL19,; also recorded: CCL20, CCL22,; also recorded: CCL28, CCL8,; also recorded: X3CL1, CXL10,; also recorded: CXL11, SDF1,; also recorded: CXL14, IL8
CR8339 (HRTVKLIFAIVVAYFL) | CCL28, X3CL1,; also recorded: CXL11, SDF1,; also recorded: CXL14 | – | –
CR14850 (LVLGLLLNSLALWVFS) | – | CCL22, CCL28,; also recorded: CXL10, CXL11,; also recorded: SDF1, CXL14 | –
CR2586 (CILVWLLAFCVSLPDT) | – | – | CCL20, CCL28,; also recorded: CXL10, CXL11,; also recorded: CXL14
CR13458 (LLSVLFTLYVSTLDFS) | – | CCL18, CCL2, and CCL20, CXL10, and CXL11, SDF1, and CXL13, CXL14, and IL8 | –
CR19824 (RVTLTALAVWGLALLF) | – | CCL2, CCL22,; also recorded: CCL25, CXL10,; also recorded: CXL11, SDF1,; also recorded: CXL14, IL8 | –
CR2278 (AVWGLSLLFALPDFIF) | – | CCL18, CCL2,; also recorded: CCL22, CCL28,; also recorded: CXL10, CXL11,; also recorded: SDF1, CXL13,; also recorded: CXL14, IL8 | –
CR12277 (LFSFNRFFCQLVYFIY) | – | CCL18, CCL25,; also recorded: X3CL1, CXL10 | –
CR5518 (FLGLMASVWTHLGMAL) | – | – | CCL2, CXL10,; also recorded: CXL11
CR24593 (VFLLSLLGNSLVMLVI) | – | – | CCL22, CCL25, and CXL10, CXL11, and SDF1, CXL13, and IL8
CR20486: chemokine binding peptide of Table 5A used in FIG. 5 combinations (SGIITSVLAWVTAILA) | – | CCL11, CCL2,; also recorded: CCL8, IL8 | –
CR6044 (FSALVTLITSLFGSIF) | CCL2, X3CL1,; also recorded: CXL10, IL8 | – | –
